# Laboratory results published in patent US20030181426A1, “Compositions and methods for treating pain using cyclooxygenase-1 inhibitors” (priority 2002, published 2003).
# Legend:
# acute noxious heat = assay: Heat pain testing with Peltier-controlled thermode in volunteers; format: in vivo, humans; details: for Pain threshold temperatures: in °C (unit assumed)
# tactile allodynia = assay: PSNL tactile allodynia, local and systemic ketorolac; format: in vivo, rats; details: for duration of reversal of tactile allodynia: disappeared by day 5; for tactile allodynia in the ipsilateral paw: three hours after injection
# Description: PSNL was performed as described above. […] Three rats in each group were also injected with normal saline to serve as controls. For all injections, rats were briefly anaesthetized by inhalation of 2-4% halothane/96% oxygen and air. Perineural injection was performed as previously described ([…] al. 1995). Briefly, the rat was held in lateral recumbency with the limb to be injected forming a right angle with a longitudinal axis of the trunk. The greater trochanter and ischial tuberosity were localized by palpation. On an imaginary line from the greater trochanter to the ischial tuberosity, about one third of the distance caudal to the greater trochanter, a 25-gauge injection needle was advanced from dorsolateral direction at a 45° angle until the tip encountered the ischium. A total volume of 0.2 mL was injected in a fanning motion along the path of the sciatic nerve.
smiles,measurement,setting,value
O=C(c1ccccc1)c1ccc2n1CCC2C(=O)O (stereo not drawn) [ketorolac],temperature pain threshold,acute noxious heat; 0.5 mg i.t.,did not affect
same,analgesic effect to acute noxious heat (pain magnitude report),"acute noxious heat; 0.5 mg i.t., moderate and severe pain intensities, FIG. 3",apparent effect
same,Pain threshold temperatures,"acute noxious heat; Arm, 0.25 mg i.t., 0.25 h",45 ± 1.0
same,Pain threshold temperatures,"acute noxious heat; Arm, 0.25 mg i.t., 0.5 h",44 ± 1.5
same,Pain threshold temperatures,"acute noxious heat; Arm, 0.25 mg i.t., 1 h",45 ± 1.3
same,Pain threshold temperatures,"acute noxious heat; Arm, 0.25 mg i.t., 2 h",44 ± 1.7
same,Pain threshold temperatures,"acute noxious heat; Arm, 0.25 mg i.t., 3 h",45 ± 1.1
same,Pain threshold temperatures,"acute noxious heat; Arm, 0.25 mg i.t., 4 h",44 ± 2.2
same,Pain threshold temperatures,"acute noxious heat; Arm, 0.25 mg i.t., 24 h",46 ± 0.5
same,Pain threshold temperatures,"acute noxious heat; Arm, 0.25 mg i.t., time 0 h (injection at time 0)",45 ± 1.1
same,Pain threshold temperatures,"acute noxious heat; Arm, 0.50 mg i.t., 0.25 h",44 ± 1.9
same,Pain threshold temperatures,"acute noxious heat; Arm, 0.50 mg i.t., 0.5 h",43 ± 1.2
same,Pain threshold temperatures,"acute noxious heat; Arm, 0.50 mg i.t., 1 h",44 ± 1.7
same,Pain threshold temperatures,"acute noxious heat; Arm, 0.50 mg i.t., 2 h",45 ± 1.9
same,Pain threshold temperatures,"acute noxious heat; Arm, 0.50 mg i.t., 3 h",46 ± 1.7
same,Pain threshold temperatures,"acute noxious heat; Arm, 0.50 mg i.t., 4 h",46 ± 1.7
same,Pain threshold temperatures,"acute noxious heat; Arm, 0.50 mg i.t., 24 h",44 ± 1.7
same,Pain threshold temperatures,"acute noxious heat; Arm, 0.50 mg i.t., time 0 h (injection at time 0)",45 ± 1.9
same,Pain threshold temperatures,"acute noxious heat; Arm, 1.0 mg i.t., 0.25 h",41 ± 1.3
same,Pain threshold temperatures,"acute noxious heat; Arm, 1.0 mg i.t., 0.5 h",40 ± 0.5
same,Pain threshold temperatures,"acute noxious heat; Arm, 1.0 mg i.t., 1 h",39 ± 0.7
same,Pain threshold temperatures,"acute noxious heat; Arm, 1.0 mg i.t., 2 h",41 ± 1.2
same,Pain threshold temperatures,"acute noxious heat; Arm, 1.0 mg i.t., 3 h",42 ± 0.9
same,Pain threshold temperatures,"acute noxious heat; Arm, 1.0 mg i.t., 4 h",42 ± 1.5
same,Pain threshold temperatures,"acute noxious heat; Arm, 1.0 mg i.t., 24 h",41 ± 1.6
same,Pain threshold temperatures,"acute noxious heat; Arm, 1.0 mg i.t., time 0 h (injection at time 0)",40 ± 0.5
same,Pain threshold temperatures,"acute noxious heat; Arm, 2.0 mg i.t., 0.25 h",44 ± 1.9
same,Pain threshold temperatures,"acute noxious heat; Arm, 2.0 mg i.t., 0.5 h",43 ± 1.4
same,Pain threshold temperatures,"acute noxious heat; Arm, 2.0 mg i.t., 1 h",40 ± 2.1
same,Pain threshold temperatures,"acute noxious heat; Arm, 2.0 mg i.t., 2 h",43 ± 1.8
same,Pain threshold temperatures,"acute noxious heat; Arm, 2.0 mg i.t., 3 h",43 ± 1.6
same,Pain threshold temperatures,"acute noxious heat; Arm, 2.0 mg i.t., 4 h",43 ± 1.9
same,Pain threshold temperatures,"acute noxious heat; Arm, 2.0 mg i.t., 24 h",45 ± 2.3
same,Pain threshold temperatures,"acute noxious heat; Arm, 2.0 mg i.t., time 0 h (injection at time 0)",44 ± 1.3
same,Pain threshold temperatures,"acute noxious heat; Leg, 0.25 mg i.t., 0.25 h",45 ± 1.1
same,Pain threshold temperatures,"acute noxious heat; Leg, 0.25 mg i.t., 0.5 h",46 ± 1.1
same,Pain threshold temperatures,"acute noxious heat; Leg, 0.25 mg i.t., 1 h",47 ± 0.7
same,Pain threshold temperatures,"acute noxious heat; Leg, 0.25 mg i.t., 2 h",46 ± 1.5
same,Pain threshold temperatures,"acute noxious heat; Leg, 0.25 mg i.t., 3 h",45 ± 1.1
same,Pain threshold temperatures,"acute noxious heat; Leg, 0.25 mg i.t., 4 h",46 ± 0.9
same,Pain threshold temperatures,"acute noxious heat; Leg, 0.25 mg i.t., 24 h",45 ± 1.1
same,Pain threshold temperatures,"acute noxious heat; Leg, 0.25 mg i.t., time 0 h (injection at time 0)",45 ± 1.3
same,Pain threshold temperatures,"acute noxious heat; Leg, 0.50 mg i.t., 0.25 h",46 ± 2.4
same,Pain threshold temperatures,"acute noxious heat; Leg, 0.50 mg i.t., 0.5 h",48 ± 2.2
same,Pain threshold temperatures,"acute noxious heat; Leg, 0.50 mg i.t., 1 h",46 ± 1.7
same,Pain threshold temperatures,"acute noxious heat; Leg, 0.50 mg i.t., 2 h",46 ± 2.5
same,Pain threshold temperatures,"acute noxious heat; Leg, 0.50 mg i.t., 3 h",46 ± 1.7
same,Pain threshold temperatures,"acute noxious heat; Leg, 0.50 mg i.t., 4 h",46 ± 2.4
same,Pain threshold temperatures,"acute noxious heat; Leg, 0.50 mg i.t., 24 h",45 ± 2.0
same,Pain threshold temperatures,"acute noxious heat; Leg, 0.50 mg i.t., time 0 h (injection at time 0)",45 ± 1.4
same,Pain threshold temperatures,"acute noxious heat; Leg, 1.0 mg i.t., 0.25 h",42 ± 1.7
same,Pain threshold temperatures,"acute noxious heat; Leg, 1.0 mg i.t., 0.5 h",42 ± 0.5
same,Pain threshold temperatures,"acute noxious heat; Leg, 1.0 mg i.t., 1 h",44 ± 0.5
same,Pain threshold temperatures,"acute noxious heat; Leg, 1.0 mg i.t., 2 h",42 ± 1.5
same,Pain threshold temperatures,"acute noxious heat; Leg, 1.0 mg i.t., 3 h",43 ± 1.0
same,Pain threshold temperatures,"acute noxious heat; Leg, 1.0 mg i.t., 4 h",43 ± 1.1
same,Pain threshold temperatures,"acute noxious heat; Leg, 1.0 mg i.t., 24 h",42 ± 0.9
same,Pain threshold temperatures,"acute noxious heat; Leg, 1.0 mg i.t., time 0 h (injection at time 0)",41 ± 1.3
same,Pain threshold temperatures,"acute noxious heat; Leg, 2.0 mg i.t., 0.25 h",45 ± 1.4
same,Pain threshold temperatures,"acute noxious heat; Leg, 2.0 mg i.t., 0.5 h",43 ± 1.3
same,Pain threshold temperatures,"acute noxious heat; Leg, 2.0 mg i.t., 1 h",44 ± 2.1
same,Pain threshold temperatures,"acute noxious heat; Leg, 2.0 mg i.t., 2 h",44 ± 2.3
same,Pain threshold temperatures,"acute noxious heat; Leg, 2.0 mg i.t., 3 h",43 ± 1.6
same,Pain threshold temperatures,"acute noxious heat; Leg, 2.0 mg i.t., 4 h",44 ± 1.8
same,Pain threshold temperatures,"acute noxious heat; Leg, 2.0 mg i.t., 24 h",45 ± 2.2
same,Pain threshold temperatures,"acute noxious heat; Leg, 2.0 mg i.t., time 0 h (injection at time 0)",45 ± 1.6
same,response to suprathreshold stimuli,acute noxious heat; any dose (0.25-2 mg i.t.),no effect
same,threshold to heat pain in either the arm or the leg,acute noxious heat; i.t. 0.25-2 mg,unaffected
same,analgesia to acute noxious heat,"acute noxious heat; i.t., doses up to 1.0 mg",several hours of analgesia
same,duration of reversal of tactile allodynia,tactile allodynia; 0.2 mL 0.5% intramuscular,3 days
same,tactile allodynia in the ipsilateral paw,tactile allodynia; 0.2 mL 0.5% intramuscular,reversed
same,duration of reversal of tactile allodynia,tactile allodynia; 0.2 mL 0.5% intraperitoneal,3 days
same,tactile allodynia in the ipsilateral paw,tactile allodynia; 0.2 mL 0.5% intraperitoneal,reversed
same,tactile allodynia in the ipsilateral hindpaw,"tactile allodynia; 0.2 mL 0.5% intraplantar, 3 weeks after PSNL, three hours to 5 days",reversed the tactile allodynia
same,antiallodynic effect,"tactile allodynia; 0.2 mL 0.5% peri-neural, 3 weeks after PSNL",slow onset of antiallodynic effect that was observed only 3 and 5 days after injection
